In patent US9133180B2, “Aurora and FLT3 kinases modulators” (SAREUM LIMITED, priority 2012, dated 2015):

Assays:
MV4-11 xenograft tumors = assay: MV4-11 xenograft study in nude mice; assay type: in vivo, Balb/c nude mouse; settings: 4 cycles; for tumour inhibitory rate (IR): 5 days on, 2 day off, tumour weight at end point
From the text: The in vivo antitumour activity of compounds of the invention was investigated by examining the effect of the compounds of Examples 2 and 7 on tumour growth in a nude mouse xenograft model of the MV4-11 cancer cell line.
MV4-11 cell line (ATCC, USA); RPMI 1640 medium (Invitrogen, USA); FBS (Invitrogen, Australia); Balb/c nude mouse (Slac Laboratory Animal Co., Ltd., Shanghai, China): female, 18-22 g; HP-6-CD (Sigma, USA).
A total of 52 female nude mice were used. The mice were allowed 3 days of acclimatization period before starting the experiment. Mice were implanted subcutaneously (s.c.) with 200 μl of 1×10^7MV4-11 tumour cells in 50% Matrigel in the right flank at the beginning of the study. When tumours reached an average volume of 100-150 mm^3, 32 mice out of the 52 were selected based on tumour volume, and randomly assigned to 4 groups prior to dosing. Each treatment group consisted of 8 tumour-bearing animals (n=8/group).
A comparison group of mice were treated with cytarabine once daily for 5 days on, 2 days off, for 4 cycles.
Mice were weighed at each dosing and the tumour sizes recorded twice each week. Mice were observed closely for any overt signs of adverse, treatment-related side effects and these were recorded if and when they were observed.
The tumour size was measured twice weekly in two dimensions using calipers, and the volume was expressed in mm^3 using the formula: V=0.5 a×b^2 where a and b were the long and short diameters of the tumour, respectively.
Mice were euthanized by CO2 exposure after 4-cycle dose. The tumour volume, weight of dissected tumours, and the mouse body weight were measured and recorded. The tumour inhibitory rate (IR) was calculated by the formula IR=(WV−WT)/WV×100%.
The differences in tumour size between the groups were analyzed for significance using the unpaired two-tailed Student's t-test. P<0.05 was considered to be statistically significant.

HCT-116 = assay: Polyploid phenotype in HCT-116 cells; assay type: cell-based, human
Description: The anti-proliferative activities of compounds of the invention are determined by measuring the ability of the compounds to inhibit the growth of the colorectal cancer derived cell-line HCT-116. Inhibition of cell growth is measured using the Alamar Blue assay (Nociari et al., Journal of Immunological Methods (1998) 213, 157-167). The method is based on the ability of viable cells to reduce resazurin to its fluorescent product resorufin. For each proliferation assay cells are plated onto 96 well plates and allowed to recover for 16 hours prior to the addition of inhibitor compounds for a further 96 hours. At the end of the incubation period 10% (v/v) Alamar Blue is added and incubated for a further 6 hours prior to determination of fluorescent product at Excitation 535 nm and Emission 590 nm. All cell lines are obtained from ECACC (European Collection of cell Cultures).
The activities of the compounds of the invention against the human colorectal cancer cell line HCT-116 are shown the in the table below. The column headed HCT-116 96 Hrs refers to the concentration of compound required to reduce the proliferation of HCT-116 cells by 50% following a 96 h period of exposure. The column headed [Polyploidy] refers to the lowest concentration of compound required to produce a distinct polyploid phenotype, believed to be due to Aurora B inhibition.

LP-1 = assay: CellTiter-Blue assay, haematological cell line; assay type: cell-based; settings: Homo sapiens, 96 h; LP-1 (MM), four days treatment
Description: (§1) The compounds of Examples 2 and 7 were tested against a range of human haematological cell lines using the CellTiter-Blue® assay (#G8081, Promega) according to the manufacturer's instructions. Cells were harvested from exponential phase cultures, counted and plated in 96 well flat-bottom microtiter plates at a cell density of 20,000-90,000 cells/well. After a 24 h recovery period to allow the cells to resume exponential growth, 10 μl of culture medium (four control wells/plate) or of culture medium with test compound were added. The compounds were applied in duplicates at ten concentrations and treatment continued for four days. After treatment of cells, 10 μl/well CellTiter-Blue® reagent was added. Following an incubation period of up to four hours, fluorescence (FU) was measured by using the EnVision Xcite multilabel reader (excitation λ=531 nm, emission λ=615 nm). The compounds were tested in two to four independent experiments for each cell line.

U-937 = assay: CellTiter-Blue assay, haematological cell line; assay type: cell-based; settings: Homo sapiens, 96 h; U-937 (NHL), four days treatment
Description: as §1

RAJI = assay: CellTiter-Blue assay, haematological cell line; assay type: cell-based; settings: Homo sapiens, 96 h; RAJI (NHL), four days treatment
Description: as §1

CCRF-CEM = assay: CellTiter-Blue assay, haematological cell line; assay type: cell-based; settings: Homo sapiens, 96 h; CCRF-CEM (ALL), four days treatment
Description: as §1

MOLT-4 = assay: CellTiter-Blue assay, haematological cell line; assay type: cell-based; settings: Homo sapiens, 96 h; MOLT-4 (ALL), four days treatment
Description: as §1

HUT-78 = assay: CellTiter-Blue assay, haematological cell line; assay type: cell-based; settings: Homo sapiens, HuT78, 96 h; HUT-78 (NHL), four days treatment
Description: as §1

K-562 = assay: CellTiter-Blue assay, haematological cell line; assay type: cell-based; settings: Homo sapiens, K562, 96 h; K-562 (CML), four days treatment
Description: as §1

OCI-AML2 = assay: CellTiter-Blue assay, haematological cell line; assay type: cell-based; settings: Homo sapiens, 96 h; OCI-AML2 (AML), four days treatment
Description: as §1

L-363 = assay: CellTiter-Blue assay, haematological cell line; assay type: cell-based; settings: Homo sapiens, 96 h; L-363 (MM), four days treatment
Description: as §1

CCRF-CEM/VCR = assay: CellTiter-Blue assay, haematological cell line; assay type: cell-based; settings: Homo sapiens, 96 h; CCRF-CEM/VCR (ALL), four days treatment
Description: as §1

NCI-H929 = assay: CellTiter-Blue assay, haematological cell line; assay type: cell-based; settings: Homo sapiens, 96 h; NCI-H929 (MM), four days treatment
Description: as §1

NOMO-1 = assay: CellTiter-Blue assay, haematological cell line; assay type: cell-based; settings: Homo sapiens, 96 h; NOMO-1 (AML), four days treatment
Description: as §1

JURL-MK1 = assay: CellTiter-Blue assay, haematological cell line; assay type: cell-based; settings: Homo sapiens, 96 h; JURL-MK1 (CML), four days treatment
Description: as §1

| Compound | effect on tumour growth (tumour volume) (MV4-11 xenograft tumors; 30 mg/kg IV BID) | tumour inhibitory rate (IR) (MV4-11 xenograft tumors; 30 mg/kg IV BID) | [Polyploidy] lowest concentration producing a distinct polyploid phenotype (HCT-116) | IC50 (LP-1) | IC50 (U-937) | IC50 (RAJI) | IC50 (CCRF-CEM) | IC50 (MOLT-4) | IC50 (HUT-78) | IC50 (K-562) | IC50 (OCI-AML2) | IC50 (L-363) | IC50 (CCRF-CEM/VCR) | IC50 (NCI-H929) | IC50 (NOMO-1) | IC50 (JURL-MK1) | effect on tumour growth (tumour volume) (MV4-11 xenograft tumors; 20 mg/kg IV BID) | tumour inhibitory rate (IR) (MV4-11 xenograft tumors; 20 mg/kg IV BID) |
| --- | --- | --- | --- | --- | --- | --- | --- | --- | --- | --- | --- | --- | --- | --- | --- | --- | --- | --- |
| Cc1cc(F)c2[nH]ccc2c1-c1nc(C(N)=O)c(-c2ccc(N3CCNC(C)(C)C3)cc2)o1 [Example 7, 2-(5-Methyl-7-Fluoro-1H-Indol-4-yl)-5-[4-(3,3-dimethyl-piperazin-1-yl)-phenyl]-oxazole-4-carboxylic acid amide] | completely inhibited the tumor growth | 98.24% | 0.1 µM | 1010 nM | 155 nM | 1800 nM | 46 nM | 45 nM | 123 nM | 219 nM | 91 nM | 104 nM | 239 nM | 1400 nM | 61 nM | 98 nM |  |  |
| Cc1ccc2[nH]ccc2c1-c1nc(C(N)=O)c(-c2ccc(N3CCNC(C)(C)C3)cc2)o1 [Example 2, 2-(5-Methyl-1H-Indol-4-yl)-5-[4-(3,3-dimethyl-piperazin-1-yl)-phenyl]-oxazole-4-carboxylic acid amide] |  |  | 0.03 µM | 1070 nM | 94 nM | 2850 nM | 50 nM | 48 nM | 138 nM | 326 nM | 103 nM | 121 nM | 458 nM | 852 nM | 95 nM | 141 nM | completely inhibited the tumor growth | 98.13% |
